Assay results published in patent publication US10633397B2, “Substituted polycyclic pyridone derivatives and prodrugs thereof” (priority 2015, dated 2020).

Assays:
[1] = target: cap-dependent endonuclease (RNP fraction, PB1-PB2-PA complex) (Influenza A virus, UniProt P15659); test: Measurement of cap-dependant endonuclease (CEN) inhibitory activity; assay type: biochemical; settings: RNP from A/WSN/33 virus, room temperature 60 minutes; read-out: CEN_IC50
influenza virus = test: CPE inhibitory effect confirming assay; assay type: cell-based; settings: unidentified influenza virus, 72 h, read-out: CPE_EC50

Compound | IC50 [1] [nM] | EC50 (influenza virus) [nM]
O=C1c2c(O)c(=O)ccn2N([C@@H]2c3ccccc3SCc3c2ccc(F)c3F)[C@@H]2C[C@@H](C(F)(F)F)CCN12 [III-26] | 1.63 | 3
O=C1c2c(O)c(=O)ccn2N([C@@H]2c3ccccc3SCc3c2ccc(F)c3F)[C@@H]2CC(F)(F)CCN12 [III-21] | 4.06 | 2.7
CC1(C)CCN2C(=O)c3c(O)c(=O)ccn3N([C@H]3c4ccc(F)cc4CSc4ccccc43)[C@@H]2C1 [III-47] | 2.25 | 2.53
O=C1c2c(O)c(=O)ccn2N([C@@H]2c3ccccc3SCc3cccc(F)c32)[C@@H]2COCCN12 [III-10] | 4.05 | 3.46
O=C1c2c(O)c(=O)ccn2N([C@@H]2c3ccccc3SCc3c2cccc3C(F)(F)F)[C@@H]2COCCN12 [III-17] | 3.89 | 8.14
O=C1c2c(O)c(=O)ccn2N([C@@H]2c3ccccc3SCc3c2ccc(F)c3F)[C@@H]2CCC(F)(F)CN12 [III-34] | 4.69 | 2.85
O=C1c2c(O)c(=O)ccn2N([C@@H]2c3ccccc3SCc3c(F)cc(F)cc32)[C@@H]2COCCN12 [III-11] | 13.1 | 9.98
O=C1c2c(O)c(=O)ccn2N([C@@H]2c3cccc(F)c3SCc3cccc(F)c32)[C@@H]2COCCN12 [III-13] | 3.94 | 4
O=C1c2c(O)c(=O)ccn2N([C@@H]2c3ccccc3SCc3c2ccc(F)c3F)[C@@H]2CO[C@H](C(F)(F)F)CN12 [III-37] | 4.24 | 3.43
O=C1c2c(O)c(=O)ccn2N([C@@H]2c3ccccc3SCc3cccc(F)c32)[C@@H]2CC3(CCN12)CC3 [III-48] | 3.49 | 3.57
C[C@H]1COC[C@@H]2N1C(=O)c1c(O)c(=O)ccn1N2[C@H]1c2ccc(F)cc2CSc2ccccc21 [III-30] | – | 3.01
O=C1c2c(O)c(=O)ccn2N([C@H]2c3cc(F)ccc3CSc3ccccc32)[C@@H]2COCCN12 [III-14] | 15 | 15.7
O=C1c2c(O)c(=O)ccn2N([C@H]2c3ccccc3CSc3ccccc32)[C@@H]2CSCCN12 [III-5] | 10.8 | 4.28
O=C1c2c(O)c(=O)ccn2N([C@H]2c3ccccc3CSc3ccccc32)[C@@H]2CCOCCN12 [III-8] | 2.81 | 7.18
O=C1c2c(O)c(=O)ccn2N([C@H]2c3cc(F)c(F)cc3CSc3ccccc32)[C@@H]2COCCN12 [III-12] | 2.18 | 3.38
CO[C@@H]1CCN2C(=O)c3c(O)c(=O)ccn3N([C@@H]3c4ccccc4SCc4c3ccc(F)c4F)[C@@H]2C1 [III-39] | 2.75 | 2.81
O=C1c2c(O)c(=O)ccn2N([C@@H]2c3ccccc3SCc3c2ccc(F)c3F)[C@@H]2C[C@H](C(F)(F)F)CCN12 [III-38] | 8.26 | 4.04
C[C@@H]1CCN2C(=O)c3c(O)c(=O)ccn3N([C@H]3c4ccc(F)cc4CSc4ccccc43)[C@@H]2C1 [III-50] | 2.55 | 4.36
O=C1c2c(O)c(=O)ccn2N([C@H]2c3ccc(F)cc3CSc3ccccc32)[C@@H]2C[C@@H](C(F)(F)F)CCN12 [III-57] | 4.27 | 3.47
O=C1c2c(O)c(=O)ccn2N([C@@H]2c3ccccc3SCc3cccc(Cl)c32)[C@@H]2COCCN12 [III-20] | – | 4
Cc1cccc2c1[C@H](N1[C@@H]3COCCN3C(=O)c3c(O)c(=O)ccn31)c1ccccc1SC2 [III-18] | – | 3.28
O=C1c2c(O)c(=O)ccn2N([C@@H]2c3ccccc3SCc3c2ccc(F)c3F)[C@@H]2CC3(CCN12)CC3 [III-36] | – | 2.45
O=C1c2c(O)c(=O)ccn2N([C@H]2c3ccc(F)cc3CSc3ccccc32)[C@@H]2CCCCN12 [III-54] | – | 1.18
CC1(C)CCN2C(=O)c3c(O)c(=O)ccn3N([C@@H]3c4ccccc4SCc4c3ccc(F)c4F)[C@@H]2C1 [III-33] | – | 2.36
O=C1c2c(O)c(=O)ccn2N([C@@H]2c3ccccc3SCc3c(F)cccc32)[C@@H]2COCCN12 [III-19] | – | 1.43
